{"source": "patent US20260265270A1", "about": "(priority 2023, published 2026)", "origin": "cited, not measured here", "key": {"[1]": {"tested_on": "IL-23 secreted by monocytes", "settings": "after administration of the inhibitor"}, "IL-2 secreted by T cells": {"tested_on": "IL-2 secreted by T cells", "settings": "after administration of the inhibitor"}}, "data": [{"smiles": "COc1ccc(C[C@H](NC(=O)[C@H](C)NC(=O)CN2CCOCC2)C(=O)N[C@@H](Cc2ccccc2)C(=O)C2(C)CO2)cc1", "note": "(stereo in doubt) [ONX0914]", "values": [{"measurement": "IL-23 secreted by monocytes", "setting": "[1]", "result": "decrease significantly"}, {"measurement": "IL-2 secreted by T cells", "setting": "IL-2 secreted by T cells", "result": "decrease significantly"}]}]}
